Experimental data reported in patent US20090018111A1, “Novel Antimicrobial Medicament” (priority 2004, published 2009).
Read-outs that look alike come from different tables or passages of the source.

Columns and labels:
Assay in all cases: Sensitivity test (agar dilution), clinical isolate
P. aeruginosa 15036 = type: cell-based, Pseudomonas aeruginosa
Method in brief: (§1)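 MHA plates, 2-fold serial drug dilution (single or combo at various ratios); inoculum ~10^6 CFU/ml in BSG, ~5 μl spot; strains grown o/n 37 °C. JCS standard agar dilution.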

P. aeruginosa 13250 = type: cell-based, Pseudomonas aeruginosa
Method in brief: as §1

P. aeruginosa 15040 = type: cell-based, Pseudomonas aeruginosa
Method in brief: as §1

P. aeruginosa 12789 = type: cell-based, Pseudomonas aeruginosa
Method in brief: as §1

P. aeruginosa 13269 = type: cell-based, Pseudomonas aeruginosa
Method in brief: as §1

P. aeruginosa 15039 = type: cell-based, Pseudomonas aeruginosa
Method in brief: as §1

P. aeruginosa 13224 = type: cell-based, Pseudomonas aeruginosa
Method in brief: as §1

P. aeruginosa 13280 = type: cell-based, Pseudomonas aeruginosa
Method in brief: as §1

P. aeruginosa 13221 = type: cell-based, Pseudomonas aeruginosa; conditions: read-out: MIC
Method in brief: as §1

P. aeruginosa 15019 = type: cell-based, Pseudomonas aeruginosa
Method in brief: as §1

P. aeruginosa 15032 = type: cell-based, Pseudomonas aeruginosa
Method in brief: as §1

P. aeruginosa 13245 = type: cell-based, Pseudomonas aeruginosa
Method in brief: as §1

P. aeruginosa 13272 = type: cell-based, Pseudomonas aeruginosa
Method in brief: as §1

P. aeruginosa 13285 = type: cell-based, Pseudomonas aeruginosa
Method in brief: as §1

S. marcescens 1944950 = type: cell-based, Serratia marcescens
Description: In addition, the antibacterial activities were tested against strains which are comparatively less sensitive to β-lactam compounds, namely clinically isolated 13 strains of Acinetobacter calcoaceticus and Acinetobacter lwoffi, clinically isolated 11 strains of Serratia marcescens, clinically isolated 12 strains of Burkholderia cepacia, and clinically isolated 15 strains of Pseudomonas aeruginosa.
According to the standard method of Japan Chemotherapeutic Society (Chemotherapy, vol. […], p 76-79 (1981)) the test was carried out using the agar dilution method. After dissolving test samples in distilled water, agar medium containing the test samples was prepared in such a manner that the final concentration became twice serial dilution by pouring serially diluted combination drug solution or a single drug solution into agar medium. As agar medium was used Mueller Hinton Agar medium (MHA). Then, each strain was cultivated over night at 37° C. in an incubator and suspended in buffered saline solution with gelatin (BSG) in the concentration of about 10^6 CFU/ml. The suspension (about 5 μl) containing test strains was inoculated to the medium containing the test samples by Micro Planter.
Each drug was weighed, and dissolved in distilled water to give a test sample. When the drugs are used in combination, two kinds of solution containing each drug were mixed so as to be various ratio of concentration to give a mixed solution. When the sample is subjected to sensitivity test, this mixed solution was diluted by twice serial dilution method.
Furthermore, when the drug is solely used, each test sample was used as it is, and diluted by twice serial dilution method from the maximum concentration to the minimum concentration.

C[C@H]1C=C(c2csc(SC3=C(C(=O)O)N4C(=O)[C@H]([C@@H](C)O)[C@H]4[C@H]3C)n2)CN1 [SM, (4R,5S,6S)-6-[(1R)-1-Hydroxyethyl]-4-methyl-3-({4-[(5S)-5-methyl-2,5-dihydro-1H-pyrrol-3-yl]-1,3-thiazol-2-yl}sulfanyl)-7-oxo-1-azabicyclo[3.2.0]hept-2-ene-2-carboxylic acid]
MIC (P. aeruginosa 15036; Pseudomonas aeruginosa, 15036, Concomitant (ME:SM = 1:1)): 2 µg/mL | MIC (P. aeruginosa 15036; Pseudomonas aeruginosa, 15036, Concomitant (ME:SM = 1:2)): 2 µg/mL | MIC (P. aeruginosa 15036; Pseudomonas aeruginosa, 15036, Concomitant (ME:SM = 1:4)): 8 µg/mL | MIC (P. aeruginosa 15036; Pseudomonas aeruginosa, 15036, Concomitant (ME:SM = 2:1)): 1 µg/mL | MIC (P. aeruginosa 15036; Pseudomonas aeruginosa, 15036, alone): 8 µg/mL | MIC (P. aeruginosa 13250; Pseudomonas aeruginosa, 13250, Concomitant (ME:SM = 1:1)): 0.5 µg/mL | MIC (P. aeruginosa 13250; Pseudomonas aeruginosa, 13250, Concomitant (ME:SM = 1:2)): 0.5 µg/mL | MIC (P. aeruginosa 13250; Pseudomonas aeruginosa, 13250, Concomitant (ME:SM = 1:4)): 2 µg/mL | MIC (P. aeruginosa 13250; Pseudomonas aeruginosa, 13250, Concomitant (ME:SM = 2:1)): 0.25 µg/mL | MIC (P. aeruginosa 13250; Pseudomonas aeruginosa, 13250, alone): 8 µg/mL | MIC (P. aeruginosa 15040; Pseudomonas aeruginosa, 15040, Concomitant (ME:SM = 1:1)): 4 µg/mL | MIC (P. aeruginosa 15040; Pseudomonas aeruginosa, 15040, Concomitant (ME:SM = 1:2)): 4 µg/mL | MIC (P. aeruginosa 15040; Pseudomonas aeruginosa, 15040, Concomitant (ME:SM = 1:4)): 8 µg/mL | MIC (P. aeruginosa 15040; Pseudomonas aeruginosa, 15040, Concomitant (ME:SM = 2:1)): 2 µg/mL | MIC (P. aeruginosa 15040; Pseudomonas aeruginosa, 15040, alone): 16 µg/mL | MIC (P. aeruginosa 12789; Pseudomonas aeruginosa, 12789, Concomitant (ME:SM = 1:1)): 0.5 µg/mL | MIC (P. aeruginosa 12789; Pseudomonas aeruginosa, 12789, Concomitant (ME:SM = 1:2)): 1 µg/mL | MIC (P. aeruginosa 12789; Pseudomonas aeruginosa, 12789, Concomitant (ME:SM = 1:4)): 2 µg/mL | MIC (P. aeruginosa 12789; Pseudomonas aeruginosa, 12789, Concomitant (ME:SM = 2:1)): 0.25 µg/mL | MIC (P. aeruginosa 12789; Pseudomonas aeruginosa, 12789, alone): 8 µg/mL | MIC (P. aeruginosa 13269; Pseudomonas aeruginosa, 13269, Concomitant (ME:SM = 1:1)): 4 µg/mL | MIC (P. aeruginosa 13269; Pseudomonas aeruginosa, 13269, Concomitant (ME:SM = 1:2)): 4 µg/mL | MIC (P. aeruginosa 13269; Pseudomonas aeruginosa, 13269, Concomitant (ME:SM = 1:4)): 8 µg/mL | MIC (P. aeruginosa 13269; Pseudomonas aeruginosa, 13269, Concomitant (ME:SM = 2:1)): 2 µg/mL | MIC (P. aeruginosa 13269; Pseudomonas aeruginosa, 13269, alone): 16 µg/mL | MIC (P. aeruginosa 15039; Pseudomonas aeruginosa, 15039, Concomitant (ME:SM = 1:1)): 8 µg/mL | MIC (P. aeruginosa 15039; Pseudomonas aeruginosa, 15039, Concomitant (ME:SM = 1:2)): 16 µg/mL | MIC (P. aeruginosa 15039; Pseudomonas aeruginosa, 15039, Concomitant (ME:SM = 1:4)): 16 µg/mL | MIC (P. aeruginosa 15039; Pseudomonas aeruginosa, 15039, Concomitant (ME:SM = 2:1)): 4 µg/mL | MIC (P. aeruginosa 15039; Pseudomonas aeruginosa, 15039, alone): 32 µg/mL | MIC (P. aeruginosa 13224; Pseudomonas aeruginosa, 13224, Concomitant (ME:SM = 1:1)): 4 µg/mL | MIC (P. aeruginosa 13224; Pseudomonas aeruginosa, 13224, Concomitant (ME:SM = 1:2)): 4 µg/mL | MIC (P. aeruginosa 13224; Pseudomonas aeruginosa, 13224, Concomitant (ME:SM = 1:4)): 8 µg/mL | MIC (P. aeruginosa 13224; Pseudomonas aeruginosa, 13224, Concomitant (ME:SM = 2:1)): 2 µg/mL | MIC (P. aeruginosa 13224; Pseudomonas aeruginosa, 13224, alone): 16 µg/mL | MIC (P. aeruginosa 13280; Pseudomonas aeruginosa, 13280, Concomitant (ME:SM = 1:1)): 4 µg/mL | MIC (P. aeruginosa 13280; Pseudomonas aeruginosa, 13280, Concomitant (ME:SM = 1:2)): 8 µg/mL | MIC (P. aeruginosa 13280; Pseudomonas aeruginosa, 13280, Concomitant (ME:SM = 1:4)): 16 µg/mL | MIC (P. aeruginosa 13280; Pseudomonas aeruginosa, 13280, Concomitant (ME:SM = 2:1)): 4 µg/mL | MIC (P. aeruginosa 13280; Pseudomonas aeruginosa, 13280, alone): 32 µg/mL | MIC (P. aeruginosa 13221; Pseudomonas aeruginosa, 13221, Concomitant (ME:SM = 1:1)): 0.125 µg/mL | MIC (P. aeruginosa 13221; Pseudomonas aeruginosa, 13221, Concomitant (ME:SM = 1:2)): 0.25 µg/mL | MIC (P. aeruginosa 13221; Pseudomonas aeruginosa, 13221, Concomitant (ME:SM = 1:4)): 0.25 µg/mL | MIC (P. aeruginosa 13221; Pseudomonas aeruginosa, 13221, Concomitant (ME:SM = 2:1)): 0.031 µg/mL | MIC (P. aeruginosa 13221; Pseudomonas aeruginosa, 13221, alone): 16 µg/mL | MIC (P. aeruginosa 15019; Pseudomonas aeruginosa, 15019, Concomitant (ME:SM = 1:1)): 4 µg/mL | MIC (P. aeruginosa 15019; Pseudomonas aeruginosa, 15019, Concomitant (ME:SM = 1:2)): 8 µg/mL | MIC (P. aeruginosa 15019; Pseudomonas aeruginosa, 15019, Concomitant (ME:SM = 1:4)): 8 µg/mL | MIC (P. aeruginosa 15019; Pseudomonas aeruginosa, 15019, Concomitant (ME:SM = 2:1)): 2 µg/mL | MIC (P. aeruginosa 15019; Pseudomonas aeruginosa, 15019, alone): 16 µg/mL | MIC (P. aeruginosa 15032; Pseudomonas aeruginosa, 15032, Concomitant (ME:SM = 1:1)): 2 µg/mL | MIC (P. aeruginosa 15032; Pseudomonas aeruginosa, 15032, Concomitant (ME:SM = 1:2)): 2 µg/mL | MIC (P. aeruginosa 15032; Pseudomonas aeruginosa, 15032, Concomitant (ME:SM = 1:4)): 8 µg/mL | MIC (P. aeruginosa 15032; Pseudomonas aeruginosa, 15032, Concomitant (ME:SM = 2:1)): 1 µg/mL | MIC (P. aeruginosa 15032; Pseudomonas aeruginosa, 15032, alone): 8 µg/mL | MIC (P. aeruginosa 13245; Pseudomonas aeruginosa, 13245, Concomitant (ME:SM = 1:1)): 2 µg/mL | MIC (P. aeruginosa 13245; Pseudomonas aeruginosa, 13245, Concomitant (ME:SM = 1:2)): 2 µg/mL | MIC (P. aeruginosa 13245; Pseudomonas aeruginosa, 13245, Concomitant (ME:SM = 1:4)): 8 µg/mL | MIC (P. aeruginosa 13245; Pseudomonas aeruginosa, 13245, Concomitant (ME:SM = 2:1)): 1 µg/mL | MIC (P. aeruginosa 13245; Pseudomonas aeruginosa, 13245, alone): 16 µg/mL | MIC (P. aeruginosa 13272; Pseudomonas aeruginosa, 13272, Concomitant (ME:SM = 1:1)): 4 µg/mL | MIC (P. aeruginosa 13272; Pseudomonas aeruginosa, 13272, Concomitant (ME:SM = 1:2)): 4 µg/mL | MIC (P. aeruginosa 13272; Pseudomonas aeruginosa, 13272, Concomitant (ME:SM = 1:4)): 8 µg/mL | MIC (P. aeruginosa 13272; Pseudomonas aeruginosa, 13272, Concomitant (ME:SM = 2:1)): 2 µg/mL | MIC (P. aeruginosa 13272; Pseudomonas aeruginosa, 13272, alone): 16 µg/mL | MIC (P. aeruginosa 13285; Pseudomonas aeruginosa, 13285, Concomitant (ME:SM = 1:1)): 4 µg/mL | MIC (P. aeruginosa 13285; Pseudomonas aeruginosa, 13285, Concomitant (ME:SM = 1:2)): 8 µg/mL | MIC (P. aeruginosa 13285; Pseudomonas aeruginosa, 13285, Concomitant (ME:SM = 1:4)): 16 µg/mL | MIC (P. aeruginosa 13285; Pseudomonas aeruginosa, 13285, Concomitant (ME:SM = 2:1)): 2 µg/mL | MIC (P. aeruginosa 13285; Pseudomonas aeruginosa, 13285, alone): 32 µg/mL | MIC (S. marcescens 1944950; Serratia marcescens, 1944950, Concomitant (ME:SM = 1:1)): 8 µg/mL | MIC (S. marcescens 1944950; Serratia marcescens, 1944950, Concomitant (ME:SM = 1:2)): 8 µg/mL | MIC (S. marcescens 1944950; Serratia marcescens, 1944950, Concomitant (ME:SM = 1:4)): 16 µg/mL | MIC (S. marcescens 1944950; Serratia marcescens, 1944950, Concomitant (ME:SM = 2:1)): 4 µg/mL | MIC (S. marcescens 1944950; Serratia marcescens, 1944950, alone): 32 µg/mL
